Experimental data published in the supplement of paper PMC10307832.

Assays:
Experiment in all cases: relative viability (nuclei count vs DMSO), 5 days (fraction); higher = more cells survive
[1] = compound: CN(C)C/C=C/C(=O)Nc1cc2c(Nc3ccc(F)c(Cl)c3)ncnc2cc1O[C@H]1CCOC1 [Afatinib] + CC(C)C[C@H](NC(=O)[C@H](Cc1ccccc1)NC(=O)c1cnccn1)B(O)O [Bortezomib] (partner 0.002 µM)
Summary of the method: (§1)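 For relative viability, nuclei counts in treated wells were divided by those in vehicle wells. Lung cancer cell lines had been pin-tool dosed in 1536-well plates the day after seeding and cultured for 5 days, then fixed and stained in one step (final 0.05% Triton X-100, 1% formaldehyde, 1 ug/ml Hoechst) and imaged at 4×. Doses were one drug alone or a fixed anchor-drug dose plus five library-drug doses (not always all listed) in √10 steps, and values are duplicate-plate medians.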

[2] = compound: CN(C)C/C=C/C(=O)Nc1cc2c(Nc3ccc(F)c(Cl)c3)ncnc2cc1O[C@H]1CCOC1 [Afatinib] + NC(=O)Nc1cc(-c2cccc(F)c2)sc1C(=O)N[C@H]1CCCNC1 [AZD7762] (partner 0.2 µM)
Summary of the method: as §1

[3] = compound: CN(C)C/C=C/C(=O)Nc1cc2c(Nc3ccc(F)c(Cl)c3)ncnc2cc1O[C@H]1CCOC1 [Afatinib] + Nc1ncn([C@H]2C[C@H](O)[C@@H](CO)O2)c(=O)n1 [Decitabine] (partner 2 µM)
Summary of the method: as §1

[4] = compound: CN(C)C/C=C/C(=O)Nc1cc2c(Nc3ccc(F)c(Cl)c3)ncnc2cc1O[C@H]1CCOC1 [Afatinib] + CS(=O)(=O)CCNCc1ccc(-c2ccc3ncnc(Nc4ccc(OCc5cccc(F)c5)c(Cl)c4)c3c2)o1 [Lapatinib] (partner 2 µM)
Summary of the method: as §1

Cell Line | relative viability ([1]; first compound 0.005 µM) | relative viability ([1]; first compound 0.01581 µM) | relative viability ([1]; first compound 0.05 µM) | relative viability ([1]; first compound 0.1581 µM) | relative viability ([1]; first compound 0.5 µM) | relative viability ([2]; first compound 0.005 µM) | relative viability ([2]; first compound 0.01581 µM) | relative viability ([2]; first compound 0.05 µM) | relative viability ([2]; first compound 0.1581 µM) | relative viability ([2]; first compound 0.5 µM) | relative viability ([3]; first compound 0.005 µM) | relative viability ([3]; first compound 0.01581 µM) | relative viability ([3]; first compound 0.05 µM) | relative viability ([3]; first compound 0.1581 µM) | relative viability ([3]; first compound 0.5 µM) | relative viability ([4]; first compound 0.005 µM) | relative viability ([4]; first compound 0.01581 µM) | relative viability ([4]; first compound 0.05 µM) | relative viability ([4]; first compound 0.1581 µM) | relative viability ([4]; first compound 0.5 µM)
LCLC-103H | 1.01 | 1.09 | 1.05 | 0.929 | 1.12 | 0.758 | 0.814 | 0.758 | 0.781 | 0.78 | 0.714 | 0.774 | 0.727 | 0.704 | 0.718 |  |  |  |  | 
LK-2 |  |  |  |  |  | 0.465 | 0.328 | 0.371 | 0.329 | 0.521 | 0.41 | 0.258 | 0.288 | 0.328 | 0.301 | 1.13 | 0.787 | 0.846 | 0.851 | 1.01
NCI-H358 |  |  |  |  |  | 0.406 | 0.373 | 0.284 | 0.273 | 0.22 | 0.191 | 0.18 | 0.149 | 0.163 | 0.136 | 0.502 | 0.356 | 0.408 | 0.436 | 0.432
NCI-H441 | 0.59 | 0.642 | 0.864 | 0.632 | 0.313 | 1.56 | 0.993 | 1.09 | 1.16 | 1.1 | 0.241 | 0.233 | 0.225 | 0.277 | 0.229 |  |  |  |  | 
NCI-H520 | 0.712 | 0.634 | 0.748 | 0.579 | 0.614 |  |  |  |  |  | 0.539 | 0.454 | 0.45 | 0.483 | 0.413 | 0.857 | 0.78 | 0.918 | 0.903 | 0.687
NCI-H522 |  |  |  |  |  | 0.76 | 0.812 | 0.817 | 0.767 | 0.748 | 0.644 | 0.672 | 0.736 | 0.655 | 0.581 |  |  |  |  | 
NCI-H661 | 0.877 | 0.751 | 0.662 | 0.444 | 0.415 |  |  |  |  |  | 0.502 | 0.428 | 0.44 | 0.391 | 0.401 | 0.682 | 0.469 | 0.573 | 0.454 | 0.443
NCI-H1299 | 0.983 | 0.978 | 1.12 | 1.02 | 1.04 |  |  |  |  |  |  |  |  |  |  | 0.98 | 0.946 | 0.973 | 0.969 | 0.96
NCI-H1395 |  |  |  |  |  | 0.388 | 0.378 | 0.377 | 0.385 | 0.354 | 0.773 | 0.741 | 0.744 | 0.657 | 0.672 | 1.13 | 0.965 | 1.22 | 1.02 | 0.897
NCI-H1563 | 0.882 | 0.774 | 0.919 | 0.694 | 0.759 |  |  |  |  |  |  |  |  |  |  | 0.965 | 0.874 | 1.08 | 1.04 | 0.854
NCI-H1648 |  |  |  |  |  | 0.735 | 0.596 | 0.531 | 0.58 | 0.546 | 0.551 | 0.419 | 0.378 | 0.417 | 0.34 |  |  |  |  | 
NCI-H1650 | 0.222 |  | 0.204 | 0.241 | 0.207 |  |  |  |  |  | 0.383 | 0.403 | 0.426 | 0.503 | 0.368 | 0.903 |  | 1.09 | 0.772 | 0.598
